Measured values as given in ChEMBL document CHEMBL1131884, “Dicationic 2-fluorenonylcarbapenems: potent anti-MRS agents with improved solubility and pharmacokinetic properties” (Bioorg Med Chem Lett, 1999).

Assays:
Staphylococcus aureus = assay: Antibacterial activity against methicillin-resistant Staphylococcus aureus (MRSA); format: functional
MecA = biological target: T1, MecA (Staphylococcus aureus, UniProt Q7DHH4); assay: Binding affinity against PBP2a receptor by competition analysis with [3H]benzylpenicillin using cell membrane fractions from the MRSA COL strain.
T1 sequence (Q7DHH4 whole entry): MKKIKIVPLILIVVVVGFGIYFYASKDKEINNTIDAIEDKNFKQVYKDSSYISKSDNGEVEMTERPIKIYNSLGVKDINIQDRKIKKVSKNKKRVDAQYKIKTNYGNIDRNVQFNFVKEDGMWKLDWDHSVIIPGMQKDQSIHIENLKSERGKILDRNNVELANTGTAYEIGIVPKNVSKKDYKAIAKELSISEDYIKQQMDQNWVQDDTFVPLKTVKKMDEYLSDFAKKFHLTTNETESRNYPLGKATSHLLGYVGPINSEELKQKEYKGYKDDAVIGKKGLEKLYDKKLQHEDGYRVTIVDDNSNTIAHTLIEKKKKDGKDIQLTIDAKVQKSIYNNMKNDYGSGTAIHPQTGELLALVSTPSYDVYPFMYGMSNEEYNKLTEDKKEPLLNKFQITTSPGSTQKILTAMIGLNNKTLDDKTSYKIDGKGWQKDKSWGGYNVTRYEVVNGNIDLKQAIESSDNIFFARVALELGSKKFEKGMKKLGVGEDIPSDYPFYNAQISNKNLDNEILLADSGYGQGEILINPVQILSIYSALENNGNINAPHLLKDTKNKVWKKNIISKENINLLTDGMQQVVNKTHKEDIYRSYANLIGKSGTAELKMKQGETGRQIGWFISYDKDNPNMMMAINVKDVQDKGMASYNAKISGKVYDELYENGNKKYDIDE

Staphylococcus sp. = assay: Antibacterial activity against methicillin-resistant coagulase negative Staphylococci (MRCNS); format: functional

**Q.** Which MIC50 (Staphylococcus aureus) does the source give for `C[C@@H](O)[C@H]1C(=O)N2C(C(=O)O)=C(c3ccc4c(c3)-c3ccc(C[N+]56CC[N+](CC(=O)Nc7ccccc7)(CC5)CC6)cc3C4=O)C[C@H]12.[Cl-].[Cl-]` here?
**A.** 0.5 µg/mL

**Q.** What about the MIC90 (Staphylococcus aureus) of the same compound?
**A.** 2 µg/mL

**Q.** And the IC50 (MecA)?
**A.** 468 nM

**Q.** And the MIC50 (Staphylococcus sp.)?
**A.** 1 µg/mL

**Q.** And the MIC90 (Staphylococcus sp.)?
**A.** 1 µg/mL

**Q.** For `C[C@@H](O)[C@H]1C(=O)N2C(C(=O)O)=C(c3ccc4c(c3)-c3ccc(C[N+]56CC[N+](CC(=O)Nc7ccncc7)(CC5)CC6)cc3C4=O)[C@H](C)[C@H]12.[Cl-].[Cl-]`, which MIC50 (Staphylococcus aureus) is on record?
**A.** 1 µg/mL

**Q.** What about the MIC90 (Staphylococcus aureus) of the same compound?
**A.** 2 µg/mL

**Q.** What about the IC50 (MecA) of the same compound?
**A.** 1190 nM

**Q.** And the MIC50 (Staphylococcus sp.)?
**A.** 2 µg/mL

**Q.** What about the MIC90 (Staphylococcus sp.) of the same compound?
**A.** 4 µg/mL

**Q.** With `C[C@@H](O)[C@H]1C(=O)N2C(C(=O)O)=C(c3ccc4c(c3)-c3ccc(C[N+]56CC[N+](CC(=O)Nc7ccccn7)(CC5)CC6)cc3C4=O)[C@H](C)[C@H]12.[Cl-].[Cl-]` as the compound, how does the MIC50 (Staphylococcus aureus) read?
**A.** 2 µg/mL

**Q.** What about the MIC90 (Staphylococcus aureus) of the same compound?
**A.** 4 µg/mL

**Q.** And the IC50 (MecA)?
**A.** 430 nM

**Q.** And the MIC50 (Staphylococcus sp.)?
**A.** 2 µg/mL

**Q.** And the MIC90 (Staphylococcus sp.)?
**A.** 8 µg/mL

**Q.** With `CC(=O)c1ccc(NC(=O)C[N+]23CC[N+](Cc4ccc5c(c4)C(=O)c4ccc(C6=C(C(=O)O)N7C(=O)[C@H]([C@@H](C)O)[C@H]7[C@H]6C)cc4-5)(CC2)CC3)cc1.[Cl-].[Cl-]` as the compound, how does the MIC50 (Staphylococcus aureus) read?
**A.** 0.5 µg/mL

**Q.** What about the MIC90 (Staphylococcus aureus) of the same compound?
**A.** 1 µg/mL

**Q.** And the IC50 (MecA)?
**A.** 3150 nM

**Q.** What about the MIC50 (Staphylococcus sp.) of the same compound?
**A.** 1 µg/mL

**Q.** What about the MIC90 (Staphylococcus sp.) of the same compound?
**A.** 4 µg/mL

**Q.** What does the source list for `CC(C)NC(=O)C[N+]12CC[N+](Cc3ccc4c(c3)C(=O)c3ccc(C5=C(C(=O)O)N6C(=O)[C@H]([C@@H](C)O)[C@H]6[C@H]5C)cc3-4)(CC1)CC2.[Cl-].[Cl-]`?
**A.** MIC50 (Staphylococcus aureus): 2 µg/mL; MIC90 (Staphylococcus aureus): 4 µg/mL; IC50 (MecA): 1240 nM; MIC50 (Staphylococcus sp.): 4 µg/mL; MIC90 (Staphylococcus sp.): 8 µg/mL

**Q.** How did the MIC50 (Staphylococcus aureus) turn out when `C[C@@H](O)[C@H]1C(=O)N2C(C(=O)O)=C(c3ccc4c(c3)-c3ccc(C[N+]56CC[N+](CCCO)(CC5)CC6)cc3C4=O)C[C@H]12.[Cl-].[Cl-]` was run?
**A.** 2 µg/mL

**Q.** And the MIC90 (Staphylococcus aureus)?
**A.** 8 µg/mL

**Q.** And the IC50 (MecA)?
**A.** 1270 nM

**Q.** What about the MIC50 (Staphylococcus sp.) of the same compound?
**A.** 4 µg/mL

**Q.** And the MIC90 (Staphylococcus sp.)?
**A.** 4 µg/mL

**Q.** How did the MIC50 (Staphylococcus aureus) turn out when `C[C@@H](O)[C@H]1C(=O)N2C(C(=O)O)=C(c3ccc4c(c3)-c3ccc(C[N+]56CC[N+](CC(=O)Nc7ccc(O)cc7)(CC5)CC6)cc3C4=O)[C@H](C)[C@H]12.[Cl-].[Cl-]` was run?
**A.** 0.5 µg/mL

**Q.** And the MIC90 (Staphylococcus aureus)?
**A.** 1 µg/mL

**Q.** What about the IC50 (MecA) of the same compound?
**A.** 652 nM

**Q.** What about the MIC50 (Staphylococcus sp.) of the same compound?
**A.** 1 µg/mL

**Q.** And the MIC90 (Staphylococcus sp.)?
**A.** 4 µg/mL

**Q.** `COC(=O)C[N+]12CC[N+](Cc3ccc4c(c3)C(=O)c3ccc(C5=C(C(=O)O)N6C(=O)[C@H]([C@@H](C)O)[C@H]6C5)cc3-4)(CC1)CC2.[Cl-].[Cl-]` was tested. Which MIC50 (Staphylococcus aureus) did it give?
**A.** 8 µg/mL

**Q.** What about the MIC90 (Staphylococcus aureus) of the same compound?
**A.** 16 µg/mL

**Q.** And the MIC50 (Staphylococcus sp.)?
**A.** 16 µg/mL

**Q.** What about the MIC90 (Staphylococcus sp.) of the same compound?
**A.** 16 µg/mL

**Q.** Which MIC50 (Staphylococcus aureus) does the source give for `CNC(=O)C[N+]12CC[N+](Cc3ccc4c(c3)C(=O)c3ccc(C5=C(C(=O)O)N6C(=O)[C@H]([C@@H](C)O)[C@H]6[C@H]5C)cc3-4)(CC1)CC2.[Cl-].[Cl-]` here?
**A.** 4 µg/mL

**Q.** What about the MIC90 (Staphylococcus aureus) of the same compound?
**A.** 8 µg/mL

**Q.** What about the IC50 (MecA) of the same compound?
**A.** 502 nM

**Q.** And the MIC50 (Staphylococcus sp.)?
**A.** 4 µg/mL

**Q.** What about the MIC90 (Staphylococcus sp.) of the same compound?
**A.** 8 µg/mL

**Q.** How did the MIC50 (Staphylococcus aureus) turn out when `C[C@@H](O)[C@H]1C(=O)N2C(C(=O)O)=C(c3ccc4c(c3)-c3ccc(C[N+]56CC[N+](CC(=O)N(C)C)(CC5)CC6)cc3C4=O)C[C@H]12.[Cl-].[Cl-]` was run?
**A.** 4 µg/mL

**Q.** And the MIC90 (Staphylococcus aureus)?
**A.** 4 µg/mL

**Q.** What about the MIC50 (Staphylococcus sp.) of the same compound?
**A.** 4 µg/mL

**Q.** What about the MIC90 (Staphylococcus sp.) of the same compound?
**A.** 4 µg/mL

**Q.** What does the source list for `CC(=O)C[N+]12CC[N+](Cc3ccc4c(c3)C(=O)c3ccc(C5=C(C(=O)O)N6C(=O)[C@H]([C@@H](C)O)[C@H]6C5)cc3-4)(CC1)CC2.[Cl-].[Cl-]`?
**A.** MIC50 (Staphylococcus aureus): 2 µg/mL; MIC90 (Staphylococcus aureus): 8 µg/mL; MIC50 (Staphylococcus sp.): 4 µg/mL; MIC90 (Staphylococcus sp.): 4 µg/mL

**Q.** For `C[C@@H](O)[C@H]1C(=O)N2C(C(=O)O)=C(c3ccc4c(c3)-c3ccc(C[N+]56CC[N+](CC(=O)c7ccccc7)(CC5)CC6)cc3C4=O)C[C@H]12.[Cl-].[Cl-]`, which MIC50 (Staphylococcus aureus) is on record?
**A.** 2 µg/mL

**Q.** What about the MIC90 (Staphylococcus aureus) of the same compound?
**A.** 4 µg/mL

**Q.** And the MIC50 (Staphylococcus sp.)?
**A.** 2 µg/mL

**Q.** What about the MIC90 (Staphylococcus sp.) of the same compound?
**A.** 4 µg/mL

**Q.** Which MIC50 (Staphylococcus aureus) does the source give for `CNC(=O)C[N+]12CC[N+](Cc3ccc4c(c3)C(=O)c3ccc(C5=C(C(=O)O)N6C(=O)[C@H]([C@@H](C)O)[C@H]6C5)cc3-4)(CC1)CC2.[Cl-].[Cl-]` here?
**A.** 2 µg/mL

**Q.** And the MIC90 (Staphylococcus aureus)?
**A.** 8 µg/mL

**Q.** And the MIC50 (Staphylococcus sp.)?
**A.** 2 µg/mL

**Q.** What about the MIC90 (Staphylococcus sp.) of the same compound?
**A.** 4 µg/mL
